Measurements as given in a melting point compilation (Tetko et al.; mined from patent text by program, amines drawn as free bases though some values may be those of a salt).

Structure (SMILES) | melting point [°C]
O=C(O)COc1cccc2c1CC(S(=O)(=O)Cc1ccccc1)c1sc(-c3cccc(F)c3)nc1-2 (stereo unspecified) | 215 to 217
COC(=O)c1cc(F)ccc1Nc1ccnc2cc(Cl)ccc12 | 180
CCCCCCCCCCOc1cccc(C(=O)N(CC(=O)O)CC(=O)O)c1 | 87 to 90
O=C(Nc1ccccc1S(=O)(=O)N1CCCCC1)N[C@@H](Cc1ccc(NC(=O)c2c(Cl)cncc2Cl)cc1)C(=O)O | 223
Cc1ccc2cccc(OCc3c(C)ccc(N)c3C)c2n1 | 204 to 205
O=C(C(=O)c1ccc(Cl)cc1Cl)c1ccncc1 | 85
CCOCc1nc2c(N)nc3ccccc3c2n1CCCCS(=O)(=O)Nc1ccc(OC)cc1 | 229 to 230
CCCNC(=O)c1nc(CCl)n(-c2ccc(Cl)cc2C(=O)c2ccccc2Cl)n1 | 110 to 113
CCC(=O)NCC1CC1c1cccc2nscc12 (stereo unspecified) | 84 to 86
CCC(=O)N1CCC(NC(=O)Nc2ccccc2)CC1 | 169 to 171
O=C(O)c1cn(-c2ccc(F)cc2)c2c(F)c(N3Cc4ccc(Br)cc4C3)c(F)cc2c1=O | > 300
O=c1cc(-c2ccccc2)c2c(OCc3nnn[nH]3)cc(OCc3nnn[nH]3)cc2o1 | 222 to 224
CCOP(=O)(/C=C\c1cnc(-c2ccccc2)nc1OCc1ccc(OCc2nc(-c3ccco3)oc2C)c(OC)c1)OCC | 103 to 104
CCCCCC1(C(=O)Oc2ccc(C(=O)O)cc2)CC2=C(C1)C(C)(C)CCC2(C)C | 156 to 158
CC(C)(C)N(NC(=O)c1ccccc1)C(=O)c1cccnc1 | 60 to 63
COC(=O)c1cc(N2C(=O)C(=O)N(C(C)C)C2=O)c(F)cc1Cl | 106 to 108
CCCCN(CCCC)c1ccc(C=CC2=C(OC)C(=CC=CC3=C(C#N)C(=C(C#N)C#N)OC3(c3ccccc3)C(F)(F)F)CC(C)(C)C2)c(OC)c1 (stereo unspecified) | 153 to 158
CN(CS(C)(=O)=O)C(=O)Nc1ccc(Cl)c(Cl)c1 | 159
CCOC(=O)NN=C(c1ccc(Cl)cc1)c1ccc(OS(=O)(=O)c2ccc([N+](=O)[O-])cc2)cc1 | 134 to 138
CNC(=NS(C)(=O)=O)NCCCSc1ncc(Br)c(NC(N)=NCC(F)(F)F)n1 | 166 to 167
COCCOc1cc2c(Nc3ccc(Sc4nccn4C)c(Cl)c3)c(C#N)cnc2cc1N1CCC(N2CCCC2)CC1 | 238 to 241
COC(=O)Cc1cccc2c1NC(=O)C2 | 156 to 157
N=C1SCCN1c1ccc(C(F)(F)F)cc1[N+](=O)[O-] | 153
NS(=O)(=O)c1cc2c(cc1Cl)NCN(CCO)S2(=O)=O | 199 to 203

Structure (SMILES) | melting point [°C]
COc1ccc(CCNC(=O)CN)cc1OC1CCCC1 | 57 to 60
CCc1cc(C(=O)c2ccccc2Cl)c(NC=C[N+](=O)[O-])s1 | 125 to 126
Cn1c2ccccc2c2cc(C=O)c3ccccc3c21 | 188 to 192
CN=c1[nH]c2ccccc2c2nc(-c3ccc[nH]3)nn12 | 220 to 221
CCc1nc2c(N)nc(C)c(C)c2n1CCCC(=O)N1CCOCC1 | 209 to 210
C=CCCONC(=O)c1nc(-c2ccc(Cl)c(OC)c2F)cc(N)c1Cl | 141 to 143
O=C(O)c1nc2ccc(OCCCN3CCC(OC(c4ccccc4)c4ccccc4)CC3)nn2n1 | 173 to 177
O=C(NCCO)c1cccc(-c2cccc3cc(Cc4ccc(=O)[nH]c4)sc23)c1 | 134 to 137
Cc1nc(S(C)(=O)=O)oc1C | 42
CNc1nc(NS(=O)(=O)c2ccc(N)cc2)cc(N2CCC2)n1 | 295 to 296
CC(c1cccc(-c2ncc(OCCCN(C)C)cn2)c1)n1nc(-c2cccc(C#N)c2)ccc1=O (stereo unspecified) | 105 to 107
O=c1c(-c2cccc(C(F)(F)F)c2)ccc2ccccn12 | 110 to 111
CO/N=C(\C)[C@H]1CC[C@H]2[C@@H]3CC=C4C[C@@H](O)CC[C@]4(C)[C@H]3CC[C@]12C | 167 to 168
O=C(N[C@H](Cc1cccc(C(F)(F)F)c1)[C@@H](O)c1ccc(F)cc1)C1CCCCC1 (racemic) | 190 to 191
Cc1nc(-c2ccc(Br)cc2)sc1C(=O)N[C@H](C)[C@](O)(Cn1cncn1)c1ccc(F)cc1F | 165 to 166
O=CNC(=O)N1CC(Oc2cccc(C(F)(F)F)c2)C1 | 118 to 119
O=C(Nn1ccnc1)N1CCCCC1COCc1ccccc1Cl (stereo unspecified) | 91 to 92
FC(F)(F)Oc1ccc(Nc2cc(-n3ccc(C(F)(F)F)n3)c3ccccc3n2)cc1 | 128 to 130
N#Cc1ccn(-c2ccc([N+](=O)[O-])cc2F)c1 | 117 to 119
O=C1c2ccccc2-c2ccc(-c3nc(CCl)co3)cc21 | 188 to 189
Cn1nnnc1SCC1(C)SC2C(NC(=O)Cn3cnnn3)C(=O)N2C1C(=O)O (stereo unspecified) | 152 to 154
COC(=O)C1(C)CN(C(=O)Nc2ccc(Cl)cc2)N=C1c1ccc(Cl)cc1 (stereo unspecified) | 122
Cc1ccc2[nH]c(-c3ccccc3O)cc2c1 | 211 to 215
COc1cc2ncnc(N3CCC(C(C)(O)COS(=O)(=O)c4ccc(C)cc4)CC3)c2cc1OC (stereo unspecified) | 120 to 124

Structure (SMILES) | melting point [°C]
CCOC(=O)CCNC(=O)c1ccc2c(CC)nn(C3CCCC3)c2c1 | 74 to 76
O=C(Oc1ccc(-c2ccc(OC(=O)c3cc(O)c(Br)c(O)c3)cc2)cc1)c1ccc(O)c(O)c1 | 252 to 254
COC(=O)[C@@]12CO[C@@H](C(C)(C)C)N1C(=O)[C@@H](C)C2 | 107 to 108
CCOc1nc(NCc2ccco2)nc(Nc2ccc3[nH]cnc3c2)n1 | 110 to 112
CCOC(=O)CCc1ccc(OCCCc2cn(-c3ccc(C(F)(F)F)cn3)nc2OCC)cc1OCc1ccccc1 | 80 to 81
Cc1cc(CCCCCOc2ccc(-c3nc4ccccc4s3)cc2)on1 | 70.5 to 71.2
O=C1NC(=O)C(Cc2ccc(SCCCc3ccccc3)cc2)S1 (stereo unspecified) | 88 to 89
COc1ccc2c(c1OC)C(=O)O[C@@H]2[C@H]1c2c(c(Br)c3c(c2OC)OCO3)CCN1C | 169 to 170
N#Cc1ccc(S(=O)(=O)n2ccc3ccccc32)cc1C#N | 171 to 173
Nc1nccc(-c2c[nH]c3nccc(OC4CCCCC4)c23)n1 | > 210
N#Cc1csc2ccccc12 | 67 to 69
CN1C(=O)CC[C@]2(C)c3ccc(Sc4ccc5cccc([N+](=O)[O-])c5n4)cc3CC[C@@H]12 | 199 to 200
CCn1ncc2nc(C#N)c(OCCC(C)C)nc21 | 78 to 80
C=CCSc1cc(-c2ccc(C(F)(F)F)cc2)ccc1C#N | 89 to 90
CCCCC(=O)N1CCN(C(=O)Nc2ccccc2CCc2cc(C(C)(C)C)c(O)c(C(C)(C)C)c2)CC1 | 126 to 128
Cn1cc2c(c(C#N)c1=O)Nc1ccccc1S2 | 292 to 295
CCn1c(COC)nc(C(C)C)c1Sc1cc(C#N)cc(C#N)c1 | 156 to 158
CCn1c(N)c(C(N)=O)c(=O)c2cnc(Nc3ccc(O)cc3)nc21 | > 260
O=C(CCc1cccnc1)C12CC3CC(CC(C3)C1)C2 | 43 to 44.5
CCCCOC(=O)[C@H]1CN(c2ccc(N3CCSCC3)c(F)c2)C(=O)O1 | 128 to 130
O=C(CNc1ccccc1)Nc1ccc(Cl)c(Cl)c1 | 110 to 112
Cc1nc2ncnn2c(O)c1F | 273
C[C@H]1CN(C(=O)OC(C)(C)C)S(=O)(=O)O1 | 123 to 125
COc1ccc2cc(C3=CCC4(CCNCC4)CC3)ccc2c1 | 147 to 150

Structure (SMILES) | melting point [°C]
c1cncc(-c2ccnc3nccn23)c1 | 162 to 164
ClCc1cccc2c1CCCC2 | 51 to 52
COc1ccc2c(c1)CCC1C2C(O)CC2(C)C(O)CCC12 (stereo unspecified) | 161 to 162
CC1SC(C(=O)Nc2ccc(CN3CCOC3=O)cc2)Cc2cc3c(cc2C1=O)OCO3 (stereo unspecified) | 231 to 233
CC(C)Oc1ccc(-c2ccc3c(c2)C=C(C(=O)Nc2ccc(CN(C)C4CCOCC4)cc2)CCS3(=O)=O)cc1 | 245 to 247
COc1ccc(C(=O)c2ccc(OCc3nc(-c4ccccc4)oc3C)cc2)c(OCC(=O)O)c1 | 146 to 147
Cc1ccc(C2CC(N)=NN2c2nc3ccccc3s2)cc1 (stereo unspecified) | 282 to 285
CCNc1nc(SC)ncc1C=Nc1cc(OC)cc(OC)c1Cl | 196 to 198
COc1ccc2ccc(OCc3ccc4ccccc4n3)cc2c1 | 113 to 114
COc1cc(-n2cnc3cc(-c4ccc(Cl)cc4)sc3c2=O)ccc1OCC1(O)CC(F)(F)C1 | 198 to 199
CCCn1nc(C(C)C)c(C(=O)OCc2cccc(C(=O)c3ccccc3)c2)c1Cc1ccc(-c2ccccc2S(=O)(=O)NC(=O)OC(C)(C)C)c(F)c1 | 55 to 59
CCCCCCCCCCCCCCCCCCC(=O)Nc1ccn(C2OC(CO)C(O)C2O)c(=O)n1 (stereo unspecified) | 139 to 142
O=C(O)COc1ccc2c(c1)Cc1sc(S(=O)(=O)CCC(c3ccccc3)c3ccccc3)nc1-2 | 172 to 174
COC(=O)Cc1sc(Sc2cc(C(=O)OC)nc(SC)n2)nc1C | 131 to 133
CC(CCl)CCCC(C)C1CCC2C3=CC=C4C(C)(C)C(O[Si](C)(C)C(C)(C)C)CCC4(C)C3CCC21C (stereo unspecified) | 114 to 116
CCNC(=O)c1ccc(-n2nnc(C(=O)NC3CC3)c2COCc2ccccc2)c(O)c1 | 146
CC(C)(C)[Si](C)(C)OC(CCCNCCc1ccccc1)COc1ccc2c(=O)cc(-c3ccccc3)oc2c1 (stereo unspecified) | 89 to 91
CCCNC(=O)Nc1ccc(C(=O)c2ncc3ccccn23)cc1C(=O)OC | 205
CN1CCN(c2cccc3c2C=C(C#N)CC3)CC1 | 104 to 105
CCCCCCCCCCCCCCCCCCCCCCSC[C@H](NC(=O)CCCCCCCCCCCCCCC)C(=O)O | 90 to 92
O=c1[nH][nH]c(=O)n1CCOc1ccccc1 | 187 to 189
CCN(CC)c1ccc(/C=C/C(=O)CC(=O)/C=C/c2ccc3cc[nH]c3c2)c(OCc2ccccn2)c1 | 92 to 96
Cc1csc2ccc(C(O)=S)cc12 | 205 to 207
CC(C)(CC(=O)Nc1cccc(OCc2ccc3ccc(F)cc3n2)c1)C(=O)O | 209 to 210
